Assay in all cases: HTS ATP-utilizing enzyme assay, off-chip mobility-shift (Caliper HTS 250)
Common to all, as to assay type: biochemical
Holding throughout (details): kinase named = inhibitory activity/selectivity; test compound 10 μM; active = greater than three-sigma from mean

For assay [1], the target named is KIT (Homo sapiens, UniProt P10721). The source says:
(§1) The following procedures describe the reagent and plate preparation for a HTS of an ATP-utilizing enzyme, such as a protein kinase, run in an off-chip mobility-shift assay format. The following provides an HTS protocol for running a protein kinase HTS screen on a Caliper HTS 250 microfluidics system. The following parameters are dependent on the protein kinase used and can be determined by one skilled in the art as part of a typical assay development process. For example, the peptide substrate used can be identified from the current literature, by screening a peptide library of potential protein kinase substrates, or by other applicable means accepted in the field.
(§2) Assays to determine the kinase inhibitory activity of chemical entities of the present disclosure were performed using a Caliper HTS 250 microfluidics device, Greiner U-bottom assay plates, a Multidrop for transfer of reagents, and Biomek FX (AMNCBM03) software. Initially, 2.4 μL of a 1 mM solution of a test compound in 100% DMSO was added to a well of the Greiner U-bottom plate. A single Greiner U-bottom plate having 24×16 wells could include multiple test compounds. Next, 40 μL of 1.06× Assay Buffer was added to each well of the assay plate. Using the Biomek FX, 10 μL of 0.5 M EDTA was added by the span-8 to wells, indicated as 100% Control and 2.4 μL of 100% DMSO was added by the span-8 to wells, indicated as 0% Control. Using the Multidrop, 10 μL of 2.5× Enzyme Buffer, followed by 10 μL of 2.5× Substrate Buffer was added to each well of the assay plate. The total reaction volume in each well was 25 μL, and the concentration of the test compound was 10 μM. The assay plate was incubated for 2.5 hrs at 20° C. to 22° C. After the incubation period, using the Multidrop, 45 μL of 1.55× Termination Buffer was added to each well of the assay plate to stop the reaction. The inhibition of the ATP-utilizing enzyme, such as a particular protein kinase, was determined by measuring the ratio of the peptide substrate to phosphorylated product for each well of the assay plate using the Caliper HTS 250 system.
(§3) The use of three-sigma statistical limits represents a conservative method for declaring potential hits among targets. The three-sigma activity, as well as the mean population activity, can be different for each target enzyme. This method has an expected false positive rate, from an in-control measurement process, of […].
(§4) Each chemical entity listed in Table 2 was tested for protein kinase inhibitory activity according to the biological assays and definitions of protein kinase inhibitory activity as described herein. For each exemplary compound listed in Table 2, the inhibitory activity for at least one protein kinase according to the biological assays and definitions of protein kinase inhibitory activity as described herein is indicated.

Assay [2] deals with T1, ZAP70 (Homo sapiens, UniProt P43403).
T1 sequence (P43403 1-619): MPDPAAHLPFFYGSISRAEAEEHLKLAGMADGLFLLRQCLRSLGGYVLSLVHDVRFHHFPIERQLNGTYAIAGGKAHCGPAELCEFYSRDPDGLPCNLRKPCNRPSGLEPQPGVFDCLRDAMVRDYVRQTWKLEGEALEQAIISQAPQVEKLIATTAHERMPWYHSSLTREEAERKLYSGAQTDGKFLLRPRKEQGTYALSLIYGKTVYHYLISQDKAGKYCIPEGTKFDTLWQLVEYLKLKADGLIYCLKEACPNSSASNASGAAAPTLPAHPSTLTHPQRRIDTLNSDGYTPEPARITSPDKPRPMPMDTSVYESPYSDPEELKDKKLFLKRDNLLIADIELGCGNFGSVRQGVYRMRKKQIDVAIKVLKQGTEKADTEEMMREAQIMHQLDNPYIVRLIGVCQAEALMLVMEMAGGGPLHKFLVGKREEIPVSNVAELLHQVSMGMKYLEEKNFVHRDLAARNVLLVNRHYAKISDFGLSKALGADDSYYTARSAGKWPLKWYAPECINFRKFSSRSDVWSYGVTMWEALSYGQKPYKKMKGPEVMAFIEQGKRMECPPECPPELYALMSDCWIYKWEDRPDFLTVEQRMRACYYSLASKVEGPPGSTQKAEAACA
Excerpt: as §1, §2, §3, §4

Assay [3] concerns the target T2, AKT1 (Homo sapiens, UniProt P31749).
T2 construct: purchased Upstate 14-276
The procedure, abridged: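 AKT1 activity was measured by off-chip mobility shift (Caliper HTS 250) as the ratio of peptide substrate to phosphorylated product. Test compound was at 10 μM, with 2.5 h incubation at 20–22° C. EDTA wells served as 100% control and DMSO wells as 0%. Hits were called at three-sigma limits.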

Assay [4] addresses CHEK2 (Homo sapiens, UniProt O96017).
Excerpt: as §1, §2, §3, §4

In assay [5] the target is T3, DYRK2 (Homo sapiens, UniProt Q92630).
T3 sequence (Q92630 1-601): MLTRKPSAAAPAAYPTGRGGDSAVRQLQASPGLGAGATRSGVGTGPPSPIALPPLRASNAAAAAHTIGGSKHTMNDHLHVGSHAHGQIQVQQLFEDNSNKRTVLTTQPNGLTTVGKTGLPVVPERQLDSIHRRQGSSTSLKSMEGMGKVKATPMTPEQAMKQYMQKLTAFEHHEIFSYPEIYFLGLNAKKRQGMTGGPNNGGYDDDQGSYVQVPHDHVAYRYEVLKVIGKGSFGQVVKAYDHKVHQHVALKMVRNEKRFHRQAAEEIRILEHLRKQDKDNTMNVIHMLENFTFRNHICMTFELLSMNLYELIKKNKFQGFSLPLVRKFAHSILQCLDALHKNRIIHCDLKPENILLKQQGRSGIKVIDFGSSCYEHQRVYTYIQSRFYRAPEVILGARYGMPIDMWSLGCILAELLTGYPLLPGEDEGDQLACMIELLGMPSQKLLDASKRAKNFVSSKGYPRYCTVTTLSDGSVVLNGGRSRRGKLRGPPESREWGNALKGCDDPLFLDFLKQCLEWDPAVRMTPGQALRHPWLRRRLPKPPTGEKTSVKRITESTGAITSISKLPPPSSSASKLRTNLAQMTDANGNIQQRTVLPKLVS
Excerpt: as §1, §2, §3, §4

Assay [6] has as its target GSK-3-α (Homo sapiens, UniProt P49840).
Excerpt: as §1, §2, §3, §4

Here are results for 20 compounds from US7795290B2 (Genentech, Inc., priority 2004, dated 2010).

Chain of GSK-3-α (P49840 whole entry): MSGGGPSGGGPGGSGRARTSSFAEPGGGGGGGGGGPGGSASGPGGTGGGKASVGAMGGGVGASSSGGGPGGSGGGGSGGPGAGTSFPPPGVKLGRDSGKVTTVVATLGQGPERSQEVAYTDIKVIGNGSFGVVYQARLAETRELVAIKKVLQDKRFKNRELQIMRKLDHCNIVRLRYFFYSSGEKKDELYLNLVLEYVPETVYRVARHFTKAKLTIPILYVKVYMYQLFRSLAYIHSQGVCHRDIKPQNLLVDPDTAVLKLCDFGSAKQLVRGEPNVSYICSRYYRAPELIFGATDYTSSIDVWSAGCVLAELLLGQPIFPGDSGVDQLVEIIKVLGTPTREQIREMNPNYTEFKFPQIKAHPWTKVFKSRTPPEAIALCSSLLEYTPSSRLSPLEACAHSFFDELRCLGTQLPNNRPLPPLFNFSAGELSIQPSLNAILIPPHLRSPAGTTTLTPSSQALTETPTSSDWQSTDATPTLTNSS
Chain of KIT (P10721 26-976): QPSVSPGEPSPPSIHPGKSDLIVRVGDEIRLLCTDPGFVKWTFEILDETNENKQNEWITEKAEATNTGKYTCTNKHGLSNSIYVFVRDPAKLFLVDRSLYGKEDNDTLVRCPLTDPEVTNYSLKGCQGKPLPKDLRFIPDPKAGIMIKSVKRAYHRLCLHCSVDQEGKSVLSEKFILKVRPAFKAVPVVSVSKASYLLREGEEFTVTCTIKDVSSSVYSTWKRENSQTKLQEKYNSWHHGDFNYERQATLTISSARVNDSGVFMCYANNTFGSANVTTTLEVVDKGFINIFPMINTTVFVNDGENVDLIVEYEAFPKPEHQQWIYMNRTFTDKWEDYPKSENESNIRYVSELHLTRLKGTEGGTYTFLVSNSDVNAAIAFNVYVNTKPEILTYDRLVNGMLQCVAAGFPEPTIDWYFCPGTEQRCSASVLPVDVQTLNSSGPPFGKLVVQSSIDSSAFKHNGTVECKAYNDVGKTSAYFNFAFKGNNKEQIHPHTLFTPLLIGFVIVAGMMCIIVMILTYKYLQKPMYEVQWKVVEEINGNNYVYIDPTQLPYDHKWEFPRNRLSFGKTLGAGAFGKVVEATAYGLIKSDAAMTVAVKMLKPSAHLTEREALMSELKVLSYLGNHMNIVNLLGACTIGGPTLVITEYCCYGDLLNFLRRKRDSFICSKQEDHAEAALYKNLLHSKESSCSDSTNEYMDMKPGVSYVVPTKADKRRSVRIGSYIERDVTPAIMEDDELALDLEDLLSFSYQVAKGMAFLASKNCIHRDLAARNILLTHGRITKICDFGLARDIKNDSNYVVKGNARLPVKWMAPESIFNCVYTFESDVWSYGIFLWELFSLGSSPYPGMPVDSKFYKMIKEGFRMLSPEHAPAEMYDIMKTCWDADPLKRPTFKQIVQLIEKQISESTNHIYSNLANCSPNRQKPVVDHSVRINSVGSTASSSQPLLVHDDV
T2 sequence (P31749 whole entry): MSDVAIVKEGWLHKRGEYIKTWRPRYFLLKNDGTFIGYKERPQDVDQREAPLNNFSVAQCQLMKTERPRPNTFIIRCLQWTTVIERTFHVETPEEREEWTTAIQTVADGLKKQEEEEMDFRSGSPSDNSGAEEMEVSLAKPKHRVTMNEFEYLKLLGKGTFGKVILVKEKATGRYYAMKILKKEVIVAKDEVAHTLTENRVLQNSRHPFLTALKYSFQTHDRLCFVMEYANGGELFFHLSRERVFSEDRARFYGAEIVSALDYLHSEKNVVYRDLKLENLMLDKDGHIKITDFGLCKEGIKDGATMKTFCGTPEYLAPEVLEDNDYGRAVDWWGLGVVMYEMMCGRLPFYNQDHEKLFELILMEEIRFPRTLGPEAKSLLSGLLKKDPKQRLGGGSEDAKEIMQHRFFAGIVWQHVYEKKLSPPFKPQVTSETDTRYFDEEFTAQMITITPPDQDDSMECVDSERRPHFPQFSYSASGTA
Chain of CHEK2 (O96017 whole entry): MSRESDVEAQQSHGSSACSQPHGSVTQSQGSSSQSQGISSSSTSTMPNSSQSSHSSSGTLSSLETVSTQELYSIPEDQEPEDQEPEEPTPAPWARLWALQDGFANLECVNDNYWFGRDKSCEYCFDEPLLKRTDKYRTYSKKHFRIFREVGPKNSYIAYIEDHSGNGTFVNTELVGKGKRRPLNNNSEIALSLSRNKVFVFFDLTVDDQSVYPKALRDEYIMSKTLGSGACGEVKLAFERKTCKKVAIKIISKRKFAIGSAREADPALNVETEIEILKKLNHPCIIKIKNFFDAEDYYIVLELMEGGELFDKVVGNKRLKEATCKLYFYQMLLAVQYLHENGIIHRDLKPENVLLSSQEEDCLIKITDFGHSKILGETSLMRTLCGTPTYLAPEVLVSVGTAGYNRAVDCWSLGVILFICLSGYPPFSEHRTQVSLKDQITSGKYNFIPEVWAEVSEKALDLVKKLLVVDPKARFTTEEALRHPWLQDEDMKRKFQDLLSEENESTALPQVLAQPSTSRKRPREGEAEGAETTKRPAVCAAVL

For `COc1ccc(-c2csc(N(CCCN3CCOCC3)C(=O)c3ccc(SC)s3)n2)cc1` [N-(4-(4-methoxyphenyl)thiazol-2-yl)-5-(methylthio)-N-(3-morpholinopropyl)thiophene-2-carboxamide], the results for the Activity entry in assay [1] and in assay [2] were “KIT” and “ZAP70”, respectively.

Regarding `O=C(c1cccs1)N(CCCN1CCOCC1)c1nc(-c2ccc3c(c2)OCCCO3)cs1` [N-(4-(3,4-dihydro-2H-benzo[b][1,4]dioxepin-7-yl)thiazol-2-yl)-N-(3-morpholinopropyl)thiophene-2-carboxamide], the Activity entry in assay [3] is on record as “AKT1”; in assay [1], “KIT”.

Regarding `O=C(c1cccs1)N(CCCN1CCOCC1)c1nc(-c2ccnc(Cl)c2)cs1` [N-(4-(2-chloropyridin-4-yl)thiazol-2-yl)-N-(3-morpholinopropyl)thiophene-2-carboxamide], the values for the Activity entry in assay [3] and in assay [1] were “AKT1” and “KIT”, respectively.

Take `CN(C)CCCN(C(=O)c1ccccc1F)c1nc(-c2ccccc2)cs1` [N-(3-(dimethylamino)propyl)-2-fluoro-N-(4-phenylthiazol-2-yl)benzamide]: the Activity entry in assay [3] is given as “AKT1”; in assay [4] it was “CHEK2”.

For the compound `CCN(CC)CCCN(C(=O)c1ccccc1Cl)c1nc(-c2cc(OC)ccc2OC)cs1` [2-chloro-N-(3-(diethylamino)propyl)-N-(4-(2,5-dimethoxyphenyl)thiazol-2-yl)benzamide], the Activity entry in assay [4] was “CHEK2”.

Consider `COc1ccc(OC)c(-c2csc(N(CCCN(C)C)C(=O)c3cccs3)n2)c1` [N-(4-(2,5-dimethoxyphenyl)thiazol-2-yl)-N-(3-(dimethylamino)propyl)thiophene-2-carboxamide], for which the values for the Activity entry in assay [3] and in assay [4] were “AKT1” and “CHEK2”, respectively.

`COc1ccc(-c2csc(N(CCCN3CCOCC3)C(=O)COc3ccccc3)n2)cc1` [N-(4-(4-methoxyphenyl)thiazol-2-yl)-N-(3-morpholinopropyl)-2-phenoxyacetamide]: the Activity result in assay [5] is “DYRK2”; in assay [6] it was “GSK-3-α”.

Turning to `CCN(CC)CCCN(C(=O)c1ccccc1F)c1nc(-c2cc(OC)ccc2OC)cs1` [N-(3-(diethylamino)propyl)-N-(4-(2,5-dimethoxyphenyl)thiazol-2-yl)-2-fluorobenzamide], the Activity entry in assay [3] is “AKT1”; in assay [4] it was “CHEK2”.

On to `CC(=O)N(CCCN1CCOCC1)c1nc(-c2ccccc2)cs1` [N-(3-morpholinopropyl)-N-(4-phenylthiazol-2-yl)acetamide], for which the Activity result in assay [6] is on record as “GSK-3-α”.

On to `COc1ccc(OC)c(-c2csc(N(CCCN3CCN(C)CC3)C(=O)c3ccco3)n2)c1` [N-(4-(2,5-dimethoxyphenyl)thiazol-2-yl)-N-(3-(4-methylpiperazin-1-yl)propyl)furan-2-carboxamide], for which the Activity entry is reported as “AKT1” in assay [3] and “CHEK2” in assay [4].

`COc1ccc(OC)c(-c2csc(N(CCc3ccc(OC)c(OC)c3)C(=O)CCC(=O)O)n2)c1` [4-((3,4-dimethoxyphenethyl)(4-(2,5-dimethoxyphenyl)thiazol-2-yl)amino)-4-oxobutanoic acid]: the Activity result in assay [6] was “GSK-3-α”.

For the compound `O=C(c1cccs1)N(CCCN1CCOCC1)c1nc(-c2ccncc2)cs1` [N-(3-morpholinopropyl)-N-(4-(pyridin-4-yl)thiazol-2-yl)thiophene-2-carboxamide], the Activity entry in assay [3] was “AKT1”; in assay [1], “KIT”.

Regarding `COc1ccc(-c2csc(N(CCCN3CCOCC3)C(=O)c3conc3C)n2)cc1` [N-(4-(4-methoxyphenyl)thiazol-2-yl)-3-methyl-N-(3-morpholinopropyl)isoxazole-4-carboxamide], the values for the Activity result in assay [5] and in assay [2] were “DYRK2” and “ZAP70”, respectively.

With `COc1ccc(OC)c(-c2csc(N(CCCN(C)C)C(C)=O)n2)c1` [N-(4-(2,5-dimethoxyphenyl)thiazol-2-yl)-N-(3-(dimethylamino)propyl)acetamide], the Activity entry in assay [6] is “GSK-3-α”.

Regarding `CN1CCN(CCCN(C(=O)c2cccs2)c2nc(-c3ccccc3)cs2)CC1` [N-(3-(4-methylpiperazin-1-yl)propyl)-N-(4-phenylthiazol-2-yl)thiophene-2-carboxamide], the Activity entry in assay [3] was “AKT1”; in assay [4] it was “CHEK2”.

In the case of `COc1ccc(-c2csc(N(CCCN3CCN(C)CC3)C(=O)c3ccccc3)n2)cc1` [N-(4-(4-methoxyphenyl)thiazol-2-yl)-N-(3-(4-methylpiperazin-1-yl)propyl)benzamide], the values for the Activity entry in assay [3] and in assay [4] were “AKT1” and “CHEK2”, respectively.

In the case of `COc1ccc(OC)c(-c2csc(N(CCCN(C)C)C(=O)c3ccccc3F)n2)c1` [N-(4-(2,5-dimethoxyphenyl)thiazol-2-yl)-N-(3-(dimethylamino)propyl)-2-fluorobenzamide], the Activity result is “AKT1” in assay [3] and “CHEK2” in assay [4].

With `N#Cc1cccc(-c2csc(N(CCCN3CCOCC3)C(=O)c3cccs3)n2)c1` [N-(4-(3-cyanophenyl)thiazol-2-yl)-N-(3-morpholinopropyl)thiophene-2-carboxamide], the Activity result in assay [3] is on record as “AKT1”; in assay [6], “GSK-3-α”; in assay [1], “KIT”.

For the compound `COc1ccc(-c2csc(N(CCCN3CCOCC3)C(=O)c3ccc(C)o3)n2)cc1` [N-(4-(4-methoxyphenyl)thiazol-2-yl)-5-methyl-N-(3-morpholinopropyl)furan-2-carboxamide], the Activity result is reported as “AKT1” in assay [3] and “KIT” in assay [1].

For the compound `COc1ccc(-c2csc(N(CCCN3CCOCC3)C(=O)c3c(C)noc3C)n2)cc1` [N-(4-(4-methoxyphenyl)thiazol-2-yl)-3,5-dimethyl-N-(3-morpholinopropyl)isoxazole-4-carboxamide], the Activity entry in assay [1] is reported as “KIT”; in assay [2], “ZAP70”.
